Experimental data: article PMC6264176, “Cholesterol-Lowering Activity of the Major Polyphenols in Grape Seed” (Molecules, 2011)

biological target: T1, pancreatic cholesterol esterase (Sus scrofa, UniProt A0A286ZKB1); test: p-NPB hydrolysis by porcine pancreatic cholesterol esterase, absorbance at […] nm, with taurocholic acid; type: biochemical
T1 construct: gene CEL
T1 sequence (A0A286ZKB1 96-682): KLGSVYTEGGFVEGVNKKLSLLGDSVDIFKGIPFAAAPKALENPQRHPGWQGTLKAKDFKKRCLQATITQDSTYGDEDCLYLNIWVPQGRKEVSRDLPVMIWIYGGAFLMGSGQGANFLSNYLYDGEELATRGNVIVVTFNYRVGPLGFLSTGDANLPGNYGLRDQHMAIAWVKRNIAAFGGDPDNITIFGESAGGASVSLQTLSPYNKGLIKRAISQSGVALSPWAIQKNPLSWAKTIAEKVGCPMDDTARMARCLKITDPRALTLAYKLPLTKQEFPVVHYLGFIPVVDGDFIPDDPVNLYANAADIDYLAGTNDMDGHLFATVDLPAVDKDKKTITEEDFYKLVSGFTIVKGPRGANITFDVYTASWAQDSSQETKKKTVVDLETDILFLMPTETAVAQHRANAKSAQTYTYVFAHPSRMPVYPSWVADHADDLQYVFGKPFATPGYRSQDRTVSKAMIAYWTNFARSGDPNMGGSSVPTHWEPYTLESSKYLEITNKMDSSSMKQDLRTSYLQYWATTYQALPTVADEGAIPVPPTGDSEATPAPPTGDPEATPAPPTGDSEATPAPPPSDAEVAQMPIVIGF

SMILES | IC50 [µM]
O=C(O)c1cc(O)c(O)c(O)c1 [gallic acid] | > 588
Oc1cc(O)c2c(c1)OC(c1ccc(O)c(O)c1)C(O)C2 (single isomer, unassigned; (+)) [(+)-Catechin] | > 345
Oc1cc(O)c2c(c1)O[C@H](c1ccc(O)c(O)c1)[C@H](O)C2 [(–)-epicatechin] | > 345
